Results on 19 compounds are retold here after patent publication US11173151B2, “Substituted triazole derivatives and uses thereof” (BAYER AKTIENGESELLSCHAFT, priority 2017, dated 2021).

In general, IC50 refers to the concentration at which inhibition is half-maximal.

Molecules are shown by their SMILES.

In one assay the target is T1, human V2 receptor (Homo sapiens, UniProt P30518).
T1 construct: expressed in transfected cells; host or cells: CHO K1 (ATCC) expressing firefly luciferase under a CRE-responsive promoter
T1 sequence (P30518 whole entry): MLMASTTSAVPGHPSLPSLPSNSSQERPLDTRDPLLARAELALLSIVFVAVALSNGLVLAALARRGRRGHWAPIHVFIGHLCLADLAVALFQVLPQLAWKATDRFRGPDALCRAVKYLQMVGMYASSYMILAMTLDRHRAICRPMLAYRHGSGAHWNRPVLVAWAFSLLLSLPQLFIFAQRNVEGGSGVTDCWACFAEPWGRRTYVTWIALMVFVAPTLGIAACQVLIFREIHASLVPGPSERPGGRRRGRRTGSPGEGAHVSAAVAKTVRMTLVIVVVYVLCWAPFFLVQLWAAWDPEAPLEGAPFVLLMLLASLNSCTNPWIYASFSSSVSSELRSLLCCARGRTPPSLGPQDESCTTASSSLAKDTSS
Put plainly: Cellular in vitro assay for determining vasopressin receptor activity, V2 receptor cell line (CHO, CRE-luciferase). The assay is classed as cell-based. Conditions: CHO cell line transfected with human V2 receptor; [Arg8]-vasopressin at EC50 concentration, 3 hours; read-out: IC50 hV2.

The target of the next assay is T2, human V1a receptor (Homo sapiens, UniProt P37288).
T2 construct: expressed in transfected cells; host or cells: CHO K1 (ATCC), also stably transfected with a modified aequorin
T2 sequence (P37288 whole entry): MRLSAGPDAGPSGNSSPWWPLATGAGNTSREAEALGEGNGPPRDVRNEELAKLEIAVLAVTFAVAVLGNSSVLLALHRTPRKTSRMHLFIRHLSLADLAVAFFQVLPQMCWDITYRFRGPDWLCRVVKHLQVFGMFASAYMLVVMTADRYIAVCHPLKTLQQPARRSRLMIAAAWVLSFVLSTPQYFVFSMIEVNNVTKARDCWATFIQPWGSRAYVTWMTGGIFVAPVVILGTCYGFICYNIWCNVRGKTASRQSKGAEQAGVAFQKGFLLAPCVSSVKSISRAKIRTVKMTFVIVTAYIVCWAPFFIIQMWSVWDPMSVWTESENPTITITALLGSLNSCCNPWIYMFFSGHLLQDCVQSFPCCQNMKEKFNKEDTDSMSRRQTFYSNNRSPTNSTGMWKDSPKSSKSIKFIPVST
The assay can be described thus: Cellular in vitro assay for determining vasopressin receptor activity, V1a receptor cell line (CHO, aequorin luminescence). The class given is cell-based. The note with it: for IC50: CHO cell line transfected with human V1a receptor, [Arg]-vasopressin at EC50 concentration, read-out: IC50 hV1a; for ratio IC50 hV2/hV1a: selectivity ratio IC50 hV2 / IC50 hV1a. In short, it runs like this: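 IC50 from inhibition of [Arg]-vasopressin (EC50 concentration)-evoked aequorin luminescence in CHO K1 cells, with 10-min compound pretreatment.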

Turning to `O=C(Nc1ncccc1-n1cnc(Cn2nc(-c3ccc(Cl)cc3)n(C[C@H](O)C(F)(F)F)c2=O)n1)C1CC1F` (single isomer, unassigned) [Example 86], the IC50 at human V2 receptor is 1400 nM. Moreover, at human V1a receptor, the IC50 was 4.5 nM and the “ratio IC50 hV2/hV1a” value amounted to 311.1.

Take `O=C1CCC(NC(=O)c2ccccc2-n2cnc(Cn3nc(-c4ccc(Cl)cc4)n(CC(O)C(F)(F)F)c3=O)n2)CN1` (single isomer, unassigned) [Example 192, 2-[3-({3-(4-Chlorophenyl)-5-oxo-4-[3,3,3-trifluoro-2-hydroxypropyl]-4,5-dihydro-1H-1,2,4-triazol-1-yl}methyl)-1H-1,2,4-triazol-1-yl]-N-[6-oxopiperidin-3-yl]benzamide]: the IC50 on human V2 receptor is 7350 nM. In addition, on human V1a receptor, the IC50 was 74.5 nM and the “ratio IC50 hV2/hV1a” value is reported as 98.7.

For `O=C1CCC(NC(=O)c2ccccc2-n2cnc(Cn3nc(-c4ccc(Cl)cc4)n(CC(O)C(F)(F)F)c3=O)n2)CN1` (single isomer, unassigned) [Example 193, 2-[3-({3-(4-Chlorophenyl)-5-oxo-4-[3,3,3-trifluoro-2-hydroxypropyl]-4,5-dihydro-1H-1,2,4-triazol-1-yl}methyl)-1H-1,2,4-triazol-1-yl]-N-[6-oxopiperidin-3-yl]benzamide], the IC50 at human V2 receptor was 3100 nM. On human V1a receptor, the IC50 amounted to 80 nM and the “ratio IC50 hV2/hV1a” value stood at 38.8.

On to `CC(C)(N)CNc1ccncc1-n1cnc(Cn2nc(-c3ccc(Cl)cc3)n(C[C@H](O)C(F)(F)F)c2=O)n1` [Example 1, 2-[(1-{4-[(2-Amino-2-methylpropyl)amino]pyridin-3-yl}-1H-1,2,4-triazol-3-yl)methyl]-5-(4-chlorophenyl)-4-[(2S)-3,3,3-trifluoro-2-hydroxypropyl]-2,4-dihydro-3H-1,2,4-triazol-3-one], for which the IC50 at human V2 receptor amounted to 7870 nM. At human V1a receptor, the IC50 amounted to 1950 nM and the “ratio IC50 hV2/hV1a” value is on record as 4.0.

As to `CC(C)(O)CNc1ccncc1-n1cnc(Cn2nc(-c3ccc(Cl)cc3)n(C[C@H](O)C(F)(F)F)c2=O)n1` [Example 2, 5-(4-Chlorophenyl)-2-[(1-{4-[(2-hydroxy-2-methylpropyl)amino]pyridin-3-yl}-1H-1,2,4-triazol-3-yl)methyl]-4-[(2S)-3,3,3-trifluoro-2-hydroxypropyl]-2,4-dihydro-3H-1,2,4-triazol-3-one], on human V2 receptor, the IC50 was 210 nM. At human V1a receptor, the IC50 was determined as 585 nM and the “ratio IC50 hV2/hV1a” value is 0.4.

With `NC1(CNc2ccncc2-n2cnc(Cn3nc(-c4ccc(Cl)cc4)n(C[C@H](O)C(F)(F)F)c3=O)n2)CC1` [Example 3, 2-{[1-(4-{[(1-Aminocyclopropyl)methyl]amino}pyridin-3-yl)-1H-1,2,4-triazol-3-yl]methyl}-5-(4-chlorophenyl)-4-[(2S)-3,3,3-trifluoro-2-hydroxypropyl]-2,4-dihydro-3H-1,2,4-triazol-3-one], the IC50 on human V2 receptor amounted to 730 nM; on human V1a receptor, 1220 nM. Further, at human V1a receptor, the “ratio IC50 hV2/hV1a” value stood at 0.6.

As to `O=c1n(Cc2ncn(-c3cnccc3NCC3(O)CC3)n2)nc(-c2ccc(Cl)cc2)n1C[C@H](O)C(F)(F)F` [Example 4, 5-(4-Chlorophenyl)-2-{[1-(4-{[(1-hydroxycyclopropyl)methyl]amino}pyridin-3-yl)-1H-1,2,4-triazol-3-yl]methyl}-4-[(2S)-3,3,3-trifluoro-2-hydroxypropyl]-2,4-dihydro-3H-1,2,4-triazol-3-one], at human V2 receptor, the IC50 was determined as 125 nM. Further, on human V1a receptor, the IC50 was found to be 115 nM and the “ratio IC50 hV2/hV1a” value is 1.1.

Regarding `O=C1CN(c2ccncc2-n2cnc(Cn3nc(-c4ccc(Cl)cc4)n(C[C@H](O)C(F)(F)F)c3=O)n2)CCN1` [Example 5, 4-{3-[3-({3-(4-Chlorophenyl)-5-oxo-4-[(2S)-3,3,3-trifluoro-2-hydroxypropyl]-4,5-dihydro-1H-1,2,4-triazol-1-yl}methyl)-1H-1,2,4-triazol-1-yl]pyridin-4-yl}piperazin-2-one], the IC50 on human V2 receptor is 3000 nM. Further, on human V1a receptor, the IC50 is 180 nM and the “ratio IC50 hV2/hV1a” value came to 16.7.

Turning to `O=c1n(Cc2ncn(-c3cnccc3N3CCS(=O)(=O)CC3)n2)nc(-c2ccc(Cl)cc2)n1C[C@H](O)C(F)(F)F` [Example 6, 5-(4-Chlorophenyl)-2-({1-[4-(1,1-dioxidothiomorpholin-4-yl)pyridin-3-yl]-1H-1,2,4-triazol-3-yl}methyl)-4-[(2S)-3,3,3-trifluoro-2-hydroxypropyl]-2,4-dihydro-3H-1,2,4-triazol-3-one], on human V2 receptor, the IC50 was determined as 2500 nM. Besides, on human V1a receptor, the IC50 was 71.5 nM and the “ratio IC50 hV2/hV1a” value was 35.0.

With `O=C1NCCN1CCNc1ccncc1-n1cnc(Cn2nc(-c3ccc(Cl)cc3)n(C[C@H](O)C(F)(F)F)c2=O)n1` [Example 8, 5-(4-Chlorophenyl)-2-{[1-(4-{[2-(2-oxoimidazolidin-1-yl)ethyl]amino}pyridin-3-yl)-1H-1,2,4-triazol-3-yl]methyl}-4-[(2S)-3,3,3-trifluoro-2-hydroxypropyl]-2,4-dihydro-3H-1,2,4-triazol-3-one], the IC50 at human V2 receptor was determined as 3000 nM. For the same compound, on human V1a receptor, the IC50 came to 585 nM and the “ratio IC50 hV2/hV1a” value is on record as 5.1.

On to `O=c1n(Cc2ncn(-c3cnccc3N3CCC(F)(F)CC3)n2)nc(-c2ccc(Cl)cc2)n1C[C@H](O)C(F)(F)F` [Example 9, 5-(4-Chlorophenyl)-2-({1-[4-(4,4-difluoropiperidin-1-yl)pyridin-3-yl]-1H-1,2,4-triazol-3-yl}methyl)-4-[(2S)-3,3,3-trifluoro-2-hydroxypropyl]-2,4-dihydro-3H-1,2,4-triazol-3-one], for which the IC50 at human V2 receptor was found to be 285 nM. For the same compound, at human V1a receptor, the IC50 came to 6.5 nM and the “ratio IC50 hV2/hV1a” value was determined as 43.8.

As to `O=c1n(Cc2ncn(-c3cnccc3NCC(F)(F)F)n2)nc(-c2ccc(Cl)cc2)n1C[C@H](O)C(F)(F)F` [Example 10, 5-(4-Chlorophenyl)-2-[(1-{4-[(2,2,2-trifluoroethyl)amino]pyridin-3-yl}-1H-1,2,4-triazol-3-yl)methyl]-4-[(2S)-3,3,3-trifluoro-2-hydroxypropyl]-2,4-dihydro-3H-1,2,4-triazol-3-one], the IC50 at human V2 receptor came to 445 nM. In addition, on human V1a receptor, the IC50 turned out to be 235 nM and the “ratio IC50 hV2/hV1a” value is reported as 1.9.

As for `O=c1n(Cc2ncn(-c3cnccc3NCCC(F)(F)F)n2)nc(-c2ccc(Cl)cc2)n1C[C@H](O)C(F)(F)F` [Example 11, 5-(4-Chlorophenyl)-4-[(2S)-3,3,3-trifluoro-2-hydroxypropyl]-2-[(1-{4-[(3,3,3-trifluoropropyl)amino]pyridin-3-yl}-1H-1,2,4-triazol-3-yl)methyl]-2,4-dihydro-3H-1,2,4-triazol-3-one], on human V2 receptor, the IC50 worked out at 410 nM. Also, at human V1a receptor, the IC50 was 958 nM and the “ratio IC50 hV2/hV1a” value is 0.4.

As for `CC(F)(F)CNc1ccncc1-n1cnc(Cn2nc(-c3ccc(Cl)cc3)n(C[C@H](O)C(F)(F)F)c2=O)n1` [Example 12, 5-(4-Chlorophenyl)-2-[(1-{4-[(2,2-difluoropropyl)amino]pyridin-3-yl}-1H-1,2,4-triazol-3-yl)methyl]-4-[(2S)-3,3,3-trifluoro-2-hydroxypropyl]-2,4-dihydro-3H-1,2,4-triazol-3-one], on human V2 receptor, the IC50 amounted to 370 nM. At human V1a receptor, the concentration for half-maximal inhibition (IC50) was 727 nM and the “ratio IC50 hV2/hV1a” value amounted to 0.5.

As for `CC1(C)CN(c2ccncc2-n2cnc(Cn3nc(-c4ccc(Cl)cc4)n(C[C@H](O)C(F)(F)F)c3=O)n2)CCN1` [Example 14, 5-(4-Chlorophenyl)-2-({1-[4-(3,3-dimethylpiperazin-1-yl)pyridin-3-yl]-1H-1,2,4-triazol-3-yl}methyl)-4-[(2S)-3,3,3-trifluoro-2-hydroxypropyl]-2,4-dihydro-3H-1,2,4-triazol-3-one], the IC50 at human V2 receptor is 5330 nM; at human V1a receptor it was 278 nM. Also, the “ratio IC50 hV2/hV1a” value at human V1a receptor was found to be 19.2.

Consider `O=c1n(Cc2ncn(-c3cnccc3N3CCOCC3)n2)nc(-c2ccc(Cl)cc2)n1C[C@H](O)C(F)(F)F` [Example 15, 5-(4-Chlorophenyl)-2-({1-[4-(morpholin-4-yl)pyridin-3-yl]-1H-1,2,4-triazol-3-yl}methyl)-4-[(2S)-3,3,3-trifluoro-2-hydroxypropyl]-2,4-dihydro-3H-1,2,4-triazol-3-one], for which the IC50 at human V2 receptor was 785 nM; at human V1a receptor it was 19.3 nM. For the same compound, on human V1a receptor, the “ratio IC50 hV2/hV1a” value was determined as 40.8.

`CC(C)(C)OC(=O)CNc1ccncc1-n1cnc(Cn2nc(-c3ccc(Cl)cc3)n(C[C@H](O)C(F)(F)F)c2=O)n1` [Example 16, Tert-butyl N-{3-[3-({3-(4-chlorophenyl)-5-oxo-4-[(2S)-3,3,3-trifluoro-2-hydroxypropyl]-4,5-dihydro-1H-1,2,4-triazol-1-yl}methyl)-1H-1,2,4-triazol-1-yl]pyridin-4-yl}glycinate]: the IC50 on human V2 receptor was found to be 1550 nM; at human V1a receptor, 79.5 nM. For the same compound, the “ratio IC50 hV2/hV1a” value at human V1a receptor came to 19.5.

Regarding `NC(=O)CNc1ccncc1-n1cnc(Cn2nc(-c3ccc(Cl)cc3)n(C[C@H](O)C(F)(F)F)c2=O)n1` [Example 17, N^2-{3-[3-({3-(4-Chlorophenyl)-5-oxo-4-[(2S)-3,3,3-trifluoro-2-hydroxypropyl]-4,5-dihydro-1H-1,2,4-triazol-1-yl}methyl)-1H-1,2,4-triazol-1-yl]pyridin-4-yl}glycinamide], the IC50 on human V2 receptor came out at 2850 nM. For the same compound, on human V1a receptor, the half-inhibitory concentration (IC50) is 2250 nM and the “ratio IC50 hV2/hV1a” value worked out at 1.3.

With `O=c1n(Cc2ncn(-c3cnccc3NCC3CS(=O)(=O)C3)n2)nc(-c2ccc(Cl)cc2)n1C[C@H](O)C(F)(F)F` [Example 18, 5-(4-Chlorophenyl)-2-{[1-(4-{[(1,1-dioxidothietan-3-yl)methyl]amino}pyridin-3-yl)-1H-1,2,4-triazol-3-yl]methyl}-4-[(2S)-3,3,3-trifluoro-2-hydroxypropyl]-2,4-dihydro-3H-1,2,4-triazol-3-one], the IC50 was 1950 nM on human V2 receptor and 23.7 nM on human V1a receptor. For the same compound, at human V1a receptor, the “ratio IC50 hV2/hV1a” value was found to be 82.3.
